Holding throughout (assay type): cell-based
Assay [1] deals with HEK-293-αVβ3 cells. Nature of the assay: AP5 Binding Assay. The following applies: 10 mM EDTA; average±SD of 17 experiments.
Assay [2] deals with T1, HEK-293-αVβ3 cells (Homo sapiens, UniProt P05106+P06756). Nature of the assay: αVβ3 Cell Adhesion to Fibrinogen Assay. Details: IC50; other: dose reducing by 50% the adhesion of HEK-293-αVβ3 cells to fibrinogen; untreated cells 100% adhesion, 10 mM EDTA 0%. The following applies: dose reducing by 50% the adhesion of HEK-293-αVβ3 cells to fibrinogen; separate determinations listed.
T1 sequence (P05106 whole entry): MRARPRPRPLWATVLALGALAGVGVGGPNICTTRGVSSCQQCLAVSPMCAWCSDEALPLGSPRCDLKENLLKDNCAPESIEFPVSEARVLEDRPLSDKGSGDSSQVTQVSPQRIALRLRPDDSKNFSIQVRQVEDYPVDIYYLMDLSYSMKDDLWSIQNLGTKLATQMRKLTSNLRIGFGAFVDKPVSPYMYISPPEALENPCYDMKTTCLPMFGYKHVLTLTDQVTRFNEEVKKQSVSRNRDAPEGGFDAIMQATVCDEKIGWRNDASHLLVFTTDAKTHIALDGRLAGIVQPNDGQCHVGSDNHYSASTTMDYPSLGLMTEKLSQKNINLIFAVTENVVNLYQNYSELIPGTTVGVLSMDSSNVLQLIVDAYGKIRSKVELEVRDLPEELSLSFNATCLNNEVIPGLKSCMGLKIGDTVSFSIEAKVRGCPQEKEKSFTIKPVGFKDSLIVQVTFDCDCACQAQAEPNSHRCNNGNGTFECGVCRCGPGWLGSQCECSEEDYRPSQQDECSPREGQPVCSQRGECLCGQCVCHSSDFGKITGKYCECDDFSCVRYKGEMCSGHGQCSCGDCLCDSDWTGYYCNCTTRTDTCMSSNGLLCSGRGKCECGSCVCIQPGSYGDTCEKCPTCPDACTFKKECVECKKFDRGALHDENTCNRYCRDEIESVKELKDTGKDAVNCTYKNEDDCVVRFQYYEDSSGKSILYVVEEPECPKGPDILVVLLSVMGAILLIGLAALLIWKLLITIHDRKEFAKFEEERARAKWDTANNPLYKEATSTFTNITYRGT
T1 sequence (P06756 whole entry): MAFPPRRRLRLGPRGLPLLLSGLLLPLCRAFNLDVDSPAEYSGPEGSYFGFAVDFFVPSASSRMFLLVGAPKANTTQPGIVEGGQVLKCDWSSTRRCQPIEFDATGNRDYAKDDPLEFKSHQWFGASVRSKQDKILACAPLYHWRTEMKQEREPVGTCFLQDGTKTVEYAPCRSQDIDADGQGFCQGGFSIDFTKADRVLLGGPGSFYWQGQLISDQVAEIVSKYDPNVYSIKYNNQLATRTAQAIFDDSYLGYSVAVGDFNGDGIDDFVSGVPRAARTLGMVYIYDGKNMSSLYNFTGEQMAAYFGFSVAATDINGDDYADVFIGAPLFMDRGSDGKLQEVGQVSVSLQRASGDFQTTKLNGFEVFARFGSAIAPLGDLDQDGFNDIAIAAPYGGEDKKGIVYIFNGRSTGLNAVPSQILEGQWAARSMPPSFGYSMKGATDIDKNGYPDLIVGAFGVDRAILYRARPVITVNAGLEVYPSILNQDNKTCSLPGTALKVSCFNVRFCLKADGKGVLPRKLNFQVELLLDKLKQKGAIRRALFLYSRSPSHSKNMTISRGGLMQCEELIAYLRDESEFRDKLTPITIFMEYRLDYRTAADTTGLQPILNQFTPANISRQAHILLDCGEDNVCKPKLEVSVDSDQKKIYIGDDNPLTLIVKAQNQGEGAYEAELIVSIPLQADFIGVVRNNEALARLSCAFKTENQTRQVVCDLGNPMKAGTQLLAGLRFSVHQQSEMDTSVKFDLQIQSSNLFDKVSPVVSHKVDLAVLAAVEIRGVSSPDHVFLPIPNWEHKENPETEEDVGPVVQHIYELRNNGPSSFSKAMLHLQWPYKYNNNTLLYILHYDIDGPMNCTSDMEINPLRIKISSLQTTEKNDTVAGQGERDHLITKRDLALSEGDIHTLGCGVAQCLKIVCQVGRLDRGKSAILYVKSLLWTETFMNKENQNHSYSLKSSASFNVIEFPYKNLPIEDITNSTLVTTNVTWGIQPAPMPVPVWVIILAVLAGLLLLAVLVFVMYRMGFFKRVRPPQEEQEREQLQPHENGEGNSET

Assay [3] concerns the target T1, HEK-293-αVβ3 cells. Nature of the assay: AP5 Binding Assay. The following applies: for activation at 10 µM: relative to AP5 expression induced by cilengitide, read-out: AP5 expression induced at the highest concentration; for EC50: concentration inducing 50% of the AP5 expression induced by 1 μM cilengitide.

As to `O=C(O)CN(CCN(CC(=O)O)CC(=O)O)CC(=O)O` [EDTA, reference compound], in assay [1], the AP5 expression was 21.8±5.9 arbitrary fluorescence units.
The term IC50 denotes the concentration at which inhibition is half-maximal. One may read the EC50 as the concentration giving half of the maximal effect. `O=C(CCCCc1ccc2c(n1)NCCC2)NCCC(NC(=O)c1nc2ccccc2o1)C(=O)O` (stereo not shown) [Example 74, 2-(1,3-benzoxazole-2-carbonylamino)-4-[5-(5,6,7,8-tetrahydro-1,8-naphthyridin-2-yl)pentanoylamino]butanoic acid]: the IC50 in assay [2] stood at 115 nM. In assay [3], the activation at 10 µM is 4% and the 50% effective concentration (EC50) is greater than 10 µM.
In assay [2], `O=C(CCCCc1ccc2c(n1)NCCC2)NCCC(Nc1nc2ccccc2o1)C(=O)O` (stereo not shown) [Example 69, 2-(1,3-benzoxazol-2-ylamino)-4-[5-(5,6,7,8-tetrahydro-1,8-naphthyridin-2-yl)pentanoylamino]butanoic acid] displayed an IC50 of 211 nM. Moreover, in assay [3], the activation at 10 µM turned out to be 7% and the EC50 is greater than 10 µM.

Values taken from patent US11192889B2, “Tetrahydronaphthyridinepentanamide integrin antagonists” (The Rockefeller University, priority 2016, dated 2021).
